Assay results from patent US11215608B2, “Methods of determining cellular chemosensitivity” (Dana-Farber Cancer Institute, Inc., priority 2006, dated 2022).

How the values were obtained:
BCL-2 = BCL-2 (Homo sapiens, UniProt P10415); conditions: cited from earlier work
BCL-XL = BCL-XL (Homo sapiens, UniProt Q07817); conditions: cited from earlier work
H146 and H1963 = conditions: in vitro and murine xenograft; cited from earlier work
[1] = tested on: SU-DHL4, SU-DHL6, SU-DHL8, SU-DHL 10; assay: Lymphoma cell line sensitivity to agents; assay type: cell-based; conditions: four lymphoma cell lines compared
Method: Only cells that are dependent on BCL-2 for survival are predicted to respond to BCL-2 antagonists like ABT-737. […] To test this, cells were treated with vincristine.

BAX = BAX oligomerization / activation in mitochondria of IL-3 starved FL5.12-BCL-2 cells; assay type: biochemical, murine
Method: Mitochondria were isolated from wt FL5.12 cells and FL5.12-BCL-2 cells in the presence of IL-3, and from FL5.12-BCL-2 cells following 24 hours of IL-3 deprivation. […] Mitochondrial pellets were subjected to chemical crosslinking as previously described (Letai et al., 2002).
This model predicts that BCL-2 acts upstream of BAX activation by intercepting activator BH3 molecules. To test this prediction, in FIG. 6E, immunoprecipitation was performed with an antibody that recognizes only the activated form of BAX which exposes an N-terminus epitope (Desagher ct al., 1999; Hsu and You le, 1997). wt or BCL-2 expressing FL5.12 cells were exposed to IL-3 withdrawal as indicated.

BCL-2, sequence (P10415 whole entry, species assumed): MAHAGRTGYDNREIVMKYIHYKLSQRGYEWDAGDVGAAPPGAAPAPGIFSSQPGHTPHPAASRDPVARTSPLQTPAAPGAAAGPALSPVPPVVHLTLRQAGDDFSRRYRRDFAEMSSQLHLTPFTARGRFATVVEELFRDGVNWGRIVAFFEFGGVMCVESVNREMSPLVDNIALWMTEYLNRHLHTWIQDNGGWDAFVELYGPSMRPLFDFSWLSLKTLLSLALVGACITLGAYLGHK
BCL-XL, sequence (Q07817 whole entry, species assumed): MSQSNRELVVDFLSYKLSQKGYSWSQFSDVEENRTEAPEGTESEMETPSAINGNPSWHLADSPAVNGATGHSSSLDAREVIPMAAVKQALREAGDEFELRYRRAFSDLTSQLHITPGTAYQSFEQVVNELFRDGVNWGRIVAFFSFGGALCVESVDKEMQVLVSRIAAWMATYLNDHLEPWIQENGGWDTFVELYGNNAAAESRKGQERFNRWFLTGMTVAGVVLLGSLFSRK

Q: Which “affinity to BCL-2” value (BCL-2) does the source give for CN(C)CC[C@H](CSc1ccccc1)Nc1ccc(S(=O)(=O)NC(=O)c2ccc(N3CCN(Cc4ccccc4-c4ccc(Cl)cc4)CC3)cc2)cc1[N+](=O)[O-] [ABT-737] here?
A: sub-nanomolar range

Q: What about the “affinity to BCL-XL” value (BCL-XL) of the same compound?
A: sub-nanomolar range

Q: And the “sensitivity of H146 and H1963 to treatment” value (H146 and H1963)?
A: sensitive to treatment with ABT-737 in vitro and in an in vivo murine xenograft model

Q: And the “cell sensitivity to the agent” value [1]?
A: BH3 profiling accurately predicted response to ABT-737

Q: What about the “cytochrome c release and BAX activation” value (BAX; mitochondria from IL-3 starved cells) of the same compound?
A: restored cytochrome c release and BAX activation

Q: What about the BAX oligomerization (BAX; peptides 30 uM, ABT-737 10 uM, 35 minutes) of the same compound?
A: results in BAX oligomerization
